The text below walks through data of patent US10820591B2, “Substituted sulfonyl amides for controlling animal pests” (Bayer Aktiengesellschaft, priority 2016, dated 2020).

The structures appear in SMILES notation. Like-named read-outs stand apart in the source and are kept apart here.

Data set [1] concerns Meloidogyne incognita. In words: Meloidogyne incognita test, comparative examples (soil drench, lettuce). Particulars: 504 h, MELGIN, 21dat. It is filed as in vivo. The method, then:
Meloidogyne incognita Test [table] To produce a suitable active compound preparation, 1 part by weight of active compound is mixed with the specified amounts of solvent and emulsifier, and the concentrate is diluted with water to the desired concentration, it being necessary to include the volume of soil which is drenched in the calculation. It should be ensured that a concentration of 20 ppm of emulsifier in the soil is not exceeded. To produce further test concentrations, water is used for dilution. Pots filled with soil (loamy sand) are watered with the active compound solution. An egg/larvae suspension of the southern root-knot nematode (Meloidogyne incognita) is added, lettuce seeds are scattered over the surface of the soil, and they are covered over with quartz sand. The lettuce seeds germinate and the plants develop. The galls develop on the roots. After 21 days, the nematicidal efficacy in % is determined by the formation of galls. 100% means that no galls have been found; 0% means that the number of galls on the treated plants corresponds to the untreated control.

Data set [2] is described as follows: log P by HPLC on reversed-phase column (C18), EEC Directive 79/831 Annex V.A8. It counts as physicochemical. The method, then: The log P values were determined according to EEC Directive 79/831 Annex V.A8 by HPLC (high-performance liquid chromatography) on a reversed-phase column (C18). Temperature 43° C. The calibration is effected with unbranched alkan-2-ones (having 3 to 16 carbon atoms), for which the log P values are known. Here, the terms acidic and neutral are defined analogously to the definitions below for the determination of M^+. The determination of the M^+ by LC-MS in the acidic range was carried out at pH 2.7 using the mobile phases 0.1% aqueous formic acid and acetonitrile (contains 0.1% formic acid); linear gradient from 10% acetonitrile to 95% acetonitrile, instrument: Agilent 1100 LC system, Agilent MSD system, HTS PAL. The determination of the M^+ by LC-MS in the neutral range was carried out at pH 7.8 using the mobile phases 0.001 molar aqueous ammonium bicarbonate solution and acetonitrile; linear gradient from 10% acetonitrile to 95% acetonitrile.

A further data set deals with Phaedon cochleariae. The data set is described as follows: Phaedon cochleariae spray test. It counts as in vivo. Particulars: 500 g/ha, Chinese cabbage leaf discs, after 7 days. The method, then:
Phaedon cochleariae—Spray Test
To produce a suitable active compound preparation, 1 part by weight of active compound is dissolved with the specified parts by weight of solvent and made up to the desired concentration with water containing an emulsifier concentration of 1000 ppm. To produce further test concentrations, the formulation is diluted with emulsifier-containing water.
After 7 days, the efficacy in % is determined. 100% means that all the beetle larvae have been killed; 0% means that no beetle larvae have been killed.

Data set [3] deals with Meloidogyne incognita. The data set is described as follows: Meloidogyne incognita test (sand, lettuce, gall formation). It is filed as in vivo. The conditions noted are these: Meloidogyne incognita, 336 h, 20 ppm, after 14 days; read-out: nematicidal efficacy (formation of galls). In a few lines: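 Gall counts on lettuce roots were scored after 14 days in sand inoculated with root-knot nematode eggs/larvae plus compound diluted in water. Values run from 0% (galls as in untreated plants) to 100% (gall-free).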

The next data set relates to Nilaparvata lugens. The data set is described as follows: Nilaparvata lugens test. It is filed as in vivo. The conditions noted are these: 500 g/ha, spray, rice plants, after 4 days. The method, then:
Nilaparvata lugens Test [table] To produce a suitable active compound preparation, 1 part by weight of active compound is dissolved with the specified parts by weight of solvent and made up to the desired concentration with water containing an emulsifier concentration of 1000 ppm. To produce further test concentrations, the formulation is diluted with emulsifier-containing water. Rice plants (Oryza sativa) are sprayed with the active compound preparation of the desired concentration and then infected with larvae of the brown planthopper (Nilaparvata lugens). After 4 days, the efficacy in % is determined. 100% means that all of the planthoppers have been killed; 0% means that none of the planthoppers have been killed.

Data set [4] deals with Myzus persicae. In words: Myzus persicae oral test. It counts as in vivo. Particulars: 120 h, 20 ppm, after 5 days, read-out: efficacy. The method, then: Myzus persicae—Oral Test [table] To produce a suitable active compound preparation, 1 part by weight of active compound is dissolved with the stated parts by weight of solvent and made up to the desired concentration with water. 50 μl of the active compound preparation are transferred into microtitre plates and made up to a final volume of 200 μl with 150 μl of IPL41 insect medium (33%+15% sugar). Subsequently, the plates are sealed with parafilm, which a mixed population of green peach aphids (Myzus persicae) within a second microtitre plate is able to puncture and imbibe the solution through it. After 5 days, the efficacy in % is determined. 100% means that all the aphids have been killed; 0% means that no aphids have been killed.

A further data set concerns Boophilus microplus. The data set is described as follows: Boophilus microplus injection test. It is filed as in vivo. The conditions noted are these: 20 μg/animal, after 7 days. The method, then:
Boophilus microplus—Injection Test Solvent: dimethyl sulfoxide To produce a suitable active compound preparation, 10 mg of active compound are mixed with 0.5 ml of solvent and the concentrate is diluted to the desired concentration with solvent. 1 μl of the active compound solution is injected into the abdomen of 5 engorged adult female cattle ticks (Boophilus microplus). The animals are transferred into dishes and kept in a climate-controlled room. Efficacy is assessed after 7 days by laying of fertile eggs. Eggs which are not visibly fertile are stored in a climate-controlled cabinet until the larvae hatch after about 42 days. An efficacy of 100% means that none of the ticks has laid any fertile eggs; 0% means that all the eggs are fertile.

Data set [5] deals with Myzus persicae. The data set is described as follows: Myzus persicae spray test (Chinese cabbage leaf discs). It is filed as in vivo. Particulars: foliar, 144 h, 500 g/ha, after 6 days, read-out: efficacy. The method, then: Myzus persicae—Spray Test [table] To produce a suitable active compound preparation, 1 part by weight of active compound is dissolved with the specified parts by weight of solvent and made up to the desired concentration with water containing an emulsifier concentration of 1000 ppm. To produce further test concentrations, the formulation is diluted with emulsifier-containing water. Discs of Chinese cabbage leaves (Brassica pekinensis) infested by all stages of the green peach aphid (Myzus persicae) are sprayed with an active compound preparation of the desired concentration. After 6 days, the efficacy in % is determined. 100% means that all the aphids have been killed; 0% means that no aphids have been killed.

[6] abbreviates: reversed-phase C18 HPLC column, pH 2.7, HCOOH (formic acid mobile phase), 43° C., read-out: log P (HCOOH).
The mark [7] stands for this setting: reversed-phase C18 HPLC column, neutral range, pH 7.8, aqueous ammonium bicarbonate/acetonitrile, 43° C., read-out: log P (neutral).
[8] abbreviates: reversed-phase C18 HPLC column, acidic range, pH 2.7, 0.1% aqueous formic acid/acetonitrile, 43° C., read-out: log P (acidic).

Take `COc1ccc(Cl)c(S(=O)(=O)NC(=O)c2cc3cc(Cl)cc(Cl)n3n2)c1`: the nematode control efficacy (%) at 1 ppm in the data set on Meloidogyne incognita [1] worked out at 0%.

Consider `COc1ccc(Cl)c(S(=O)(=O)NC(=O)c2cc3c(Cl)cc(C(F)(F)F)cn3n2)c1`, for which the nematode control efficacy (%) at 8 ppm in the data set on Meloidogyne incognita [1] was 30%.

Turning to `COc1ccc(Cl)c(S(=O)(=O)NC(=O)c2cn3cc(C(F)(F)F)cc(Cl)c3n2)c1`, in the data set on Meloidogyne incognita [1], the nematode control efficacy (%) at 0.5 ppm is 55%.

Molecule `O=C(O)c1nc(Br)n(CCC(F)(F)F)c1Br` [2,5-dibromo-1-(3,3,3-trifluoropropyl)-1H-imidazole-4-carboxylic acid] registered a chromatographic logP in data set [2] (pH 2.7) of 1.49.

For `O=C(NS(=O)(=O)c1ccccc1Cl)c1nc(Br)n(CCC(F)(F)F)c1Br` [2,5-dibromo-N-[(2-chlorophenyl)sulfonyl]-1-(3,3,3-trifluoropropyl)-1H-imidazole-4-carboxamide], the chromatographic logP in data set [2] (setting [6]) was found to be 2.99.

`CCCn1cnc(C(=O)O)c1Cl` [5-chloro-1-propyl-1H-imidazole-4-carboxylic acid] showed a chromatographic logP in data set [2] (pH 2.7) of 0.6.

Consider `CCCn1cnc(C(=O)NS(=O)(=O)c2ccc(OC)cc2)c1Cl` [5-chloro-N-[(4-methoxyphenyl)sulfonyl]-1-propyl-1H-imidazole-4-carboxamide], for which the chromatographic logP in data set [2] (setting [7]) is 0.56.

`COc1ccc(S(=O)(=O)NC(=O)c2ncn(CCC(F)(F)F)c2Cl)cc1C` [I-037] had an efficacy with Phaedon cochleariae of 83%. For the same molecule, the pest or weed control at 20 ppm in the data set with Meloidogyne incognita [3] was found to be 100%.

`COc1ccc(S(=O)(=O)NC(=O)c2ncn(C(C)CC(F)(F)F)c2Cl)cc1` (stereo not drawn) [I-070] displayed an efficacy in the data set with Nilaparvata lugens of 100%. The pest or weed control at 20 ppm in the data set with Meloidogyne incognita [3] was found to be 100%.

As to `O=C(NS(=O)(=O)c1ccccc1Cl)c1nc(Br)n(CCC(F)(F)F)c1Br` [I-107], in the data set on Nilaparvata lugens, the efficacy was 100%. For the same molecule, the pest or weed control at 20 ppm in the data set on Meloidogyne incognita [3] is 100%.

The molecule `COc1ccc(Cl)c(S(=O)(=O)NC(=O)c2nc(Cl)n(-c3cc(Cl)cc(Cl)c3)c2Cl)c1` [I-113] showed a nematode control efficacy (%) at 0.5 ppm in the data set with Meloidogyne incognita [1] of 100%. Besides, the pest or weed control at 20 ppm with Meloidogyne incognita [3] came to 100%.

As for `COc1ccc(Cl)c(S(=O)(=O)NC(=O)c2cc(-c3cc(Cl)cc(Cl)c3)n(C)n2)c1` [I-137], the nematode control efficacy (%) at 1 ppm in the data set with Meloidogyne incognita [1] was 85%. Besides, the pest or weed control at 20 ppm with Meloidogyne incognita [3] was 100%.

Molecule `COc1ccc(Cl)c(S(=O)(=O)NC(=O)c2cc(-c3cc(Cl)cc(C(F)(F)F)c3)n(C)n2)c1` [I-141] came in with a nematode control efficacy (%) at 8 ppm in the data set on Meloidogyne incognita [1] of 99%. Besides, the pest or weed control at 20 ppm with Meloidogyne incognita [3] stood at 90%.

`Cc1nc(C(=O)NS(=O)(=O)c2ccccc2)cn1-c1cccc(Cl)c1Cl` [I-268]: the pest or weed control at 20 ppm with Myzus persicae [4] was 90%; in the data set with Meloidogyne incognita [3], 100%. In the data set on Boophilus microplus, the “efficacy (laying of fertile eggs)” value was found to be 80%. Also, the pest or weed control at 500 g/ha with Myzus persicae [5] is 90%.

As for `Cc1cc(C)cc(-n2cnc(C(=O)NS(=O)(=O)c3ccccc3)c2)c1` [I-284], the pest or weed control at 20 ppm in the data set on Myzus persicae [4] turned out to be 100%; in the data set on Meloidogyne incognita [3] it was 70%. In the data set on Boophilus microplus, the “efficacy (laying of fertile eggs)” value was 100%.

In turn, `O=C(NS(=O)(=O)c1cccc(Cl)c1)c1cn(-c2cc(Cl)cc(C(F)(F)F)c2)cn1` [I-300] returned an efficacy with Phaedon cochleariae of 100%. In the data set with Meloidogyne incognita [3], the pest or weed control at 20 ppm is 70%.

In the data set with Nilaparvata lugens, `CCc1ccc(C)c(S(=O)(=O)NC(=O)c2nc(Cl)n(CCC(F)(F)F)c2Cl)c1` [I-456] returned an efficacy of 100%. In the data set with Meloidogyne incognita [3], the pest or weed control at 20 ppm came to 100%.

Regarding `COc1ccc(Cl)c(S(=O)(=O)NC(=O)c2nc(Cl)n(C3CC3C(F)(F)F)c2Cl)c1` (stereo not drawn) [I-470], the nematode control efficacy (%) at 0.5 ppm in the data set on Meloidogyne incognita [1] came to 100%. In the data set with Meloidogyne incognita [3], the pest or weed control at 20 ppm came out at 100%.

For `Cn1nc(C(=O)NS(=O)(=O)c2cc(Cl)ccc2Cl)cc1-c1cccc(C(F)(F)F)c1` [N-[(2,5-dichlorophenyl)sulfonyl]-1-methyl-5-[3-(trifluoromethyl)phenyl]-1H-pyrazole-3-carboxamide], the chromatographic logP in data set [2] (setting [8]) was determined as 3.84.

On to `COc1ccc(Cl)c(S(=O)(=O)NC(=O)c2cn(Cc3c(F)cccc3F)cn2)c1` [N-[(2-chloro-5-methoxyphenyl)sulfonyl]-1-(2,6-difluorobenzyl)-1H-imidazole-4-carboxamide], for which, in data set [2] (setting [8]), the chromatographic logP turned out to be 2.18.

Regarding `COc1ccc(Cl)c(S(=O)(=O)NC(=O)c2nc(C)n(-c3cc(Cl)cc(Cl)c3)c2F)c1` [N-[(2-chloro-5-methoxyphenyl)sulfonyl]-1-(3,5-dichlorophenyl)-5-fluoro-2-methyl-1H-imidazole-4-carboxamide], the chromatographic logP in data set [2] (setting [8]) came to 3.71.

Consider `CCOC(=O)c1cn(-c2ccccc2Cl)c(C)n1` [ethyl 1-(2-chlorophenyl)-2-methyl-1H-imidazole-4-carboxylate], for which the chromatographic logP in data set [2] (setting [7]) worked out at 2.06.

`CCCn1cnc(C(=O)OCC)c1N` [ethyl 5-amino-1-propyl-1H-imidazole-4-carboxylate]: the chromatographic logP in data set [2] (setting [7]) stood at 0.9.

In the case of `CCCn1cnc(C(=O)OCC)c1Cl` [ethyl 5-chloro-1-propyl-1H-imidazole-4-carboxylate], in data set [2] (setting [7]), the chromatographic logP was 1.7.

With `COC(=O)c1cn(Cc2c(F)cccc2F)cn1` [methyl 1-(2,6-difluorobenzyl)-1H-imidazole-4-carboxylate], the chromatographic logP was 1.45 in data set [2] (setting [8]) and 1.55 in data set [2] (setting [7]).

For `COC(=O)c1cn(CCC(F)(F)F)cn1` [methyl 1-(3,3,3-trifluoropropyl)-1H-imidazole-4-carboxylate], the chromatographic logP in data set [2] (setting [6]) was 0.87.

`COC(=O)c1nc(Br)n(CCC(F)(F)F)c1Br` [methyl 2,5-dibromo-1-(3,3,3-trifluoropropyl)-1H-imidazole-4-carboxylate]: in data set [2] (setting [6]), the chromatographic logP was 2.13.
